# From publication PMC5116268 (Journal of pharmacological and toxicological methods, 2016)
# Test system: GABAA receptor (native mixed population in iCell Neurons)
# Test: automated patch clamp
# Format: cell-based, Homo sapiens
row,Structure (SMILES),EC50
1,COc1ccc(-n2nc3c4ccc(OC)cc4[nH]cc-3c2=O)cc1 [CW-04-020],230 ± 70 nM
2,C#Cc1ccc2c(c1)C(c1ccccn1)=NCc1c(C(=O)OCC)ncn1-2 [HZ166],1560 ± 830 nM
3,CN1C(=O)CN=C(c2ccccc2)c2cc(Cl)ccc21 [diazepam],420 ± 120 nM
